Experimental data reported in patent publication US20230339886A1 (University of Florida Research Foundation, Incorporated, priority 2020, published 2023).

Columns and labels:
REV-ERBβ = biological target: T1, REV-ERBβ (Homo sapiens, UniProt Q14995); test: TR-FRET corepressor interaction assay (REV-ERBβ, FITC-SMRT peptide); assay type: biochemical; conditions: Table 2, read-out: REVERBβ agonism (EC50 class, FRET assay)
T1 construct: 6×Histag-REV-ERBα LBD (human; residues 381-579); made in house; host or cells: Escherichia coli
T1 sequence (Q14995 381-579): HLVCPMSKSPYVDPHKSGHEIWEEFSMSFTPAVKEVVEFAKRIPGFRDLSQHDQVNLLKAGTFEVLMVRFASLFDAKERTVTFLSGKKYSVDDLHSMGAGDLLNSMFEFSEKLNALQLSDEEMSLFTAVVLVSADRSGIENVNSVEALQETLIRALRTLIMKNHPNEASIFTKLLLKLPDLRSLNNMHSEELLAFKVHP
Experimental: TR-FRET corepressor interaction assay. The time-resolved fluorescence resonance energy transfer (TR-FRET) assay was performed in black low-volume 384-well plates (Greiner). […] Ligand stocks were prepared via serial dilution in DMSO, added to wells in triplicate, and plates were incubated at 4° C. for 2 h and read using a BioTek Synergy Neo multimode plate reader. The Tb donor was excited at 340 nm; its fluorescence emission was monitored at 495 nm, and the acceptor FITC emission was measured at 520 nm; and the TR-FRET ratio was calculated as the signal at 520 nm divided by the signal at 495 nm. Data were plotted using GraphPad Prism as TR-FRET ratio vs. ligand concentration and fit to sigmoidal dose response curve equation.
Exemplary compounds of the present disclosure were assayed as described above to assess agonism of REV-ERBα and REV-ERBβ.

[1] = biological target: T2, REV-ERBα LBD (human; residues 281-614 Δ324-422) (Homo sapiens, UniProt P20393, DEL324-422); test: TR-FRET corepressor interaction assay (REV-ERBα LBD, FITC-SMRT peptide); assay type: biochemical; conditions: Table 2, read-out: REVERBα agonism (EC50 class, FRET assay)
T2 construct: 6×Histag-REV-ERBα LBD (human; residues 281-614 Δ324-422); made in house; host or cells: Escherichia coli
In short: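 Compound serial dilutions (in DMSO, triplicate) incubated 2 h at 4 °C; Tb donor excited at 340 nm, emission read at 495 nm and FITC acceptor at 520 nm. TR-FRET ratio (520/495 nm) plotted against ligand concentration and fitted to a sigmoidal dose-response curve.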

T2 sequence (P20393 with tags, fused parts or gaps DEL324-422): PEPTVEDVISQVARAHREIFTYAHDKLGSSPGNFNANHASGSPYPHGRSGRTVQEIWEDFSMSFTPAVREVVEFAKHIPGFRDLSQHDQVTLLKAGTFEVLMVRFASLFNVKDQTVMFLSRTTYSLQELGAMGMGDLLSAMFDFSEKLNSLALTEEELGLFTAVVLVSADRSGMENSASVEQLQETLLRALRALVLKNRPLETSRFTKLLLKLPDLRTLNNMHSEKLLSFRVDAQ
T2 sequence (Q9Y618 2335-2356 partner limits assumed): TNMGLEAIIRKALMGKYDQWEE

Compound	EC50 (REV-ERBβ) [µM]	EC50 [1] [nM]
CC(C)Cn1cc(CCNS(=O)(=O)N(C)C)c2ccc(C(F)(F)F)cc21 [Example 105, dimethyl({2-[1-(2-methylpropyl)-6-(trifluoromethyl)-1H-indol-3-yl]ethyl}sulfamoyl)amine]	> 3	< 500
Cc1cc2c(CCNS(=O)(=O)N(C)C)cn(CC(C)C)c2cc1C [Example 120, ({2-[5,6-dimethyl-1-(2-methylpropyl)-1H-indol-3-yl]ethyl}sulfamoyl)dimethylamine]	> 3	< 500
CC(C)Cn1cc(CCNS(=O)(=O)N(C)C)c2cccc(Br)c21 [Example 137, ({2-[7-bromo-1-(2-methylpropyl)-1H-indol-3-yl]ethyl}sulfamoyl)dimethylamine]	> 3	500 to 3000
CC(C)C(=O)n1cc(C(C)NS(=O)(=O)N(C)C)c2ccc(-c3ccncc3)cc21 (stereo not drawn) [Example 180, 1-(3-{1-[(dimethylsulfamoyl)amino]ethyl}-6-(pyridin-4-yl)-1H-indol-1-yl)-2-methylpropan-1-one]	> 3	< 500
CC(C)C(=O)n1cc(C(C)NS(=O)(=O)N(C)C)c2ccc(-c3ccccc3C(F)(F)F)cc21 (stereo not drawn) [Example 195, 1-(3-{1-[(dimethylsulfamoyl)amino]ethyl}-6-[2-(trifluoromethyl)phenyl]-1H-indol-1-yl)-2-methylpropan-1-one]	0.5 to 3	< 500
Cc1c(-c2ccncc2)ccc2c(CCNS(=O)(=O)N(C)C)cn(C(=O)C(C)C)c12 [Example 199, 1-(3-{2-[(dimethylsulfamoyl)amino]ethyl}-7-methyl-6-(pyridin-4-yl)-1H-indol-1-yl)-2-methylpropan-1-one]	0.5 to 3	< 500
Cc1c(-c2ccncc2)ccc2c(CCNS(=O)(=O)N(C)C)cn(CC(C)C)c12 [Example 200, dimethyl({2-[7-methyl-1-(2-methylpropyl)-6-(pyridin-4-yl)-1H-indol-3-yl]ethyl}sulfamoyl)amine]	> 3	< 500
CC(C)Cn1cc(CCNS(=O)(=O)N(C)C)c2ccc(-c3ccncc3)nc21 [Example 203, dimethyl({2-[1-(2-methylpropyl)-6-(pyridin-4-yl)-1H-pyrrolo[2,3-b]pyridin-3-yl]ethyl}sulfamoyl)amine]	> 3	< 500
CC(C)(C)Cc1cn(CCNS(=O)(=O)C2CC2)c2ccc(-c3ccccc3C(F)(F)F)cc12 [Example 212, N-(2-(3-neopentyl-5-(2-(trifluoromethyl)phenyl)-1H-indol-1-yl)ethyl)cyclopropane sulfonamide]	0.5 to 3	< 500
CC(C)(C)Cc1cn(CCNS(=O)(=O)C2CC2)c2ccc(-c3c(Cl)cccc3Cl)cc12 [Example 214, N-(2-(5-(2,6-dichlorophenyl)-3-neopentyl-1H-indol-1-yl)ethyl)cyclopropane-sulfonamide]	0.5 to 3	< 500
CC(C)(C)Cc1cn(CCNS(=O)(=O)C2CC2)c2ccc(-c3cccc(F)c3C(F)(F)F)cc12 [Example 227, N-(2-(5-(3-fluoro-2-(trifluoromethyl)phenyl)-3-neopentyl-1H-indol-1-yl)ethyl) cyclopropanesulfonamide]	0.5 to 3	< 500
Cc1ccc2c(c1)c(CC(C)(C)C)cn2CCNS(=O)(=O)C1CC1 [Example 296, N-(2-(5-methyl-3-neopentyl-1H-indol-1-yl)ethyl)cyclopropanesulfonamide]	> 3	500 to 3000
CC(C)(C)Cc1cn(CCNS(=O)(=O)C2CC2)c2ccc(-c3c(Cl)cc(F)cc3Cl)cc12 [Example 297, N-(2-(5-(2,6-dichloro-4-fluorophenyl)-3-neopentyl-1H-indol-1-yl)ethyl) cyclo-propane sulfonamide]	0.5 to 3	500 to 3000
CC(C)(C)Cc1cn(CCNS(=O)(=O)C2CC2)c2ccc(Br)cc12 [Example 298, N-(2-(5-bromo-3-neopentyl-1H-indol-1-yl)ethyl)cyclopropanesulfonamide]	> 3	500 to 3000
CC(C)(C)Cc1cn(CCNS(=O)(=O)C2CC2)c2ccc(-c3ccc(C(F)(F)F)cc3C(F)(F)F)cc12 [Example 299, N-(2-(5-(2,4-bis(trifluoromethyl)phenyl)-3-neopentyl-1H-indol-1-yl)ethyl)cyclo-propanesulfonamide]	0.5 to 3	< 500
CC(C)(C)Cc1cn(CCNS(=O)(=O)C2CC2)c2ccc(-c3ccc(C(F)(F)F)cc3Cl)cc12 [Example 300, N-(2-(5-(2-chloro-4-(trifluoromethyl)phenyl)-3-neopentyl-1H-indol-1-yl)ethyl) cyclopropanesulfonamide]	0.5 to 3	< 500
CC(C)(C)Cc1cn(CCNS(=O)(=O)C2CC2)c2ccc(-c3ccc(F)cc3C(F)(F)F)cc12 [Example 301, N-(2-(5-(4-fluoro-2-(trifluoromethyl)phenyl)-3-neopentyl-1H-indol-1-yl)ethyl) cyclopropanesulfonamide]	0.5 to 3	< 500
Cc1ccc2c([C@H](NS(=O)(=O)C3CC3)C(F)(F)F)cn(CC(C)C)c2c1 [Example 309, (S)—N-(2,2,2-trifluoro-1-(1-isobutyl-6-methyl-1H-indol-3-yl)ethyl)cyclopropanesulfonamide]	< 0.5	< 500
CC(C)Cn1cc([C@H](NS(=O)(=O)C2CC2)C(F)(F)F)c2ccc(C3CC3)cc21 [Example 310, (S)—N-(1-(6-cyclopropyl-1-isobutyl-1H-indol-3-yl)-2,2,2-trifluoroethyl)cyclopropanesulfonamide]	0.5 to 3	< 500
CC(C)Cn1cc([C@H](NS(=O)(=O)C2CC2)C(F)(F)F)c2cc(F)c(-c3ccccc3C(F)(F)F)cc21 [Example 313, (S)—N-(2,2,2-trifluoro-1-(5-fluoro-1-isobutyl-6-(2-(trifluoromethyl)phenyl)-1H-indol-3-yl)ethyl)cyclopropanesulfonamide]	> 3	< 500
CC(C)(C)Cn1cc([C@H](NS(=O)(=O)C2CC2)C(F)(F)F)c2ccc(-c3ccccc3C(F)(F)F)cc21 [Example 322, (S)—N-(2,2,2-trifluoro-1-(1-neopentyl-6-(2-(trifluoromethyl)phenyl)-1H-indol-3-yl)ethyl)cyclopropanesulfonamide]	0.5 to 3	< 500
CN(C)S(=O)(=O)N[C@@H](c1cn(CC(C)(C)C)c2cc(-c3ccccc3C(F)(F)F)ccc12)C(F)(F)F [Example 323, {[(1S)-1-[1-(2,2-dimethylpropyl)-6-[2-(trifluoromethyl)phenyl]-1H-indol-3-yl]-2,2,2-trifluoroethyl]sulfamoyl}dimethylamine]	> 3	< 500
CN(C)S(=O)(=O)N[C@@H](c1cn(CC(C)(C)C)c2cc(C3CC3)c(F)cc12)C(F)(F)F [Example 328, {[(1S)-1-[6-cyclopropyl-1-(2,2-dimethylpropyl)-5-fluoro-1H-indol-3-yl]-2,2,2-trifluoroethyl]sulfamoyl}dimethylamine]	> 3	< 500
CC(C)Cn1cc([C@H](NS(=O)(=O)N(C)C)C(F)(F)F)c2cc(F)c(C3CC3)cc21 [Example 329, {[(1S)-1-[6-cyclopropyl-5-fluoro-1-(2-methylpropyl)-1H-indol-3-yl]-2,2,2-trifluoroethyl]sulfamoyl}dimethylamine]	> 3	< 500
